Assay results as given in patent publication US11078202B2, “β-lactamase inhibitor and use thereof” (priority 2018, dated 2021).
Counter-ions that a name gives are not always drawn.

Assays:
Type in all cases: cell-based
[1] = tested on: Pseudomonas aeruginosa XNWB 0008; test: MIC assay of test compounds combined with ceftazidime (8 μg/mL); details: ceftazidime 8 μg/mL fixed
Protocol: (§1) The bacterial strains used for the minimum inhibitory concentration (MIC) test were frozen in a −80° C. ULT freezer and thawed 2 days before use. A small amount of frozen bacterial strains were scraped using a sterile inoculating loop, streaked onto a TSA solid culture dish for inoculation, and then cultured for 20-24 h at 35±2° C. in a normal atmospheric environment. 5-10 colonies with similar morphology were picked from the culture dish using a sterile inoculating loop and then re-streaked onto a suitable solid culture dish. Then the dish was placed into a normal incubator for culture for 20-24 h at 35±2° C. 5-10 single bacterial colonies were picked from the solid culture dish, resuspended in 500 μL of 0.9% NaCl, and adjusted to an OD600 of 0.1-0.15 with a spectrophotometer. The bacteria were then diluted 300-fold with 1.1×CAMHB. […] Dilution of test compounds: […] 2 μL of each compound in the dilution master plate of the test compounds was transferred to the corresponding well of the assay plates. In the mean time, 2 μL of 100% DMSO was transferred to the compound-free wells (GC and SC wells). (1) 8 μL of imipenem in the additive plate of imipenem was transferred to the corresponding wells of the assay plates; (2) 8 μL of ceftazidime in the additive plate of ceftazidime was transferred to the corresponding wells of the assay plates; (3) 8 μL of ampicillin in the additive plate of ampicillin was transferred to the corresponding wells of the assay plates. 90 μL of corresponding bacterial inocula were added to wells (except for SC wells) of the assay plates. After addition, the 6 assay plates were covered by sterile covers. The mixtures in the assay plates were centrifuged by a centrifuge at 1000 rpm for 30 s, and mixed uniformly by oscillating with a microplate oscillator at 800 rpm for 1 min, and then cultured in a common incubator for 16-20 h at 35±2° C. The minimum inhibitory concentration of each compound was recorded by reference to guidelines from the Clinical and Laboratory Standards Institute. […] The effect of the test compounds in combination with imipenem, ceftazidime, and ampicillin was also tested. […] The bacterial inocula in the assay plates were resuscitated from TSA and diluted in CAMHB, while growth controls (GC wells) and sterile controls (SC wells) were set up in the assay plates. The minimum inhibitory concentration of each compound combination against different bacteria was observed and recorded after the assay plates were incubated in a common incubator at 35±2° C. for 16-20 h, and the results are shown in Tables 1-3.

[2] = tested on: Klebsiella pneumoniae XNWB 0004; test: as above; details: ceftazidime 8 μg/mL fixed
Protocol: as §1

[3] = tested on: Klebsiella pneumoniae XNWB 0001; test: as above; details: ceftazidime 8 μg/mL fixed
Protocol: as §1

[4] = tested on: Klebsiella pneumoniae XNWB 0005; test: as above; details: ceftazidime 8 μg/mL fixed
Protocol: as §1

[5] = tested on: Klebsiella pneumoniae XNWB 0003; test: as above; details: ceftazidime 8 μg/mL fixed
Protocol: as §1

[6] = tested on: Klebsiella pneumoniae XNWB 0002; test: as above; details: ceftazidime 8 μg/mL fixed
Protocol: as §1

[7] = tested on: Acinetobacter baumannii XNWB 0007; test: as above; details: ceftazidime 8 μg/mL fixed
Protocol: as §1

[8] = tested on: Klebsiella pneumoniae XNWB 0006; test: as above; details: ceftazidime 8 μg/mL fixed
Protocol: as §1

[9] = tested on: Pseudomonas aeruginosa XNWB 0008; test: MIC assay of test compounds combined with imipenem (4 μg/mL); details: imipenem 4 μg/mL fixed
Protocol: as §1

[10] = tested on: Klebsiella pneumoniae XNWB 0004; test: as above; details: imipenem 4 μg/mL fixed
Protocol: as §1

[11] = tested on: Klebsiella pneumoniae XNWB 0001; test: as above; details: imipenem 4 μg/mL fixed
Protocol: as §1

[12] = tested on: Klebsiella pneumoniae XNWB 0005; test: as above; details: imipenem 4 μg/mL fixed
Protocol: as §1

[13] = tested on: Klebsiella pneumoniae XNWB 0003; test: as above; details: imipenem 4 μg/mL fixed
Protocol: as §1

[14] = tested on: Klebsiella pneumoniae XNWB 0002; test: as above; details: imipenem 4 μg/mL fixed
Protocol: as §1

[15] = tested on: Acinetobacter baumannii XNWB 0007; test: as above; details: imipenem 4 μg/mL fixed
Protocol: as §1

[16] = tested on: Klebsiella pneumoniae XNWB 0006; test: as above; details: imipenem 4 μg/mL fixed
Protocol: as §1

Compound | The minimum concentration of test compounds combined with ceftazidime (8 μg/mL) for bacteriostasis [1] | The minimum concentration of test compounds combined with ceftazidime (8 μg/mL) for bacteriostasis [2] | The minimum concentration of test compounds combined with ceftazidime (8 μg/mL) for bacteriostasis [3] | The minimum concentration of test compounds combined with ceftazidime (8 μg/mL) for bacteriostasis [4] | The minimum concentration of test compounds combined with ceftazidime (8 μg/mL) for bacteriostasis [5] | The minimum concentration of test compounds combined with ceftazidime (8 μg/mL) for bacteriostasis [6] | The minimum concentration of test compounds combined with ceftazidime (8 μg/mL) for bacteriostasis [7] | The minimum concentration of test compounds combined with ceftazidime (8 μg/mL) for bacteriostasis [8] | The minimum concentration of test compounds combined with imipenem (4 μg/mL) for bacteriostasis [9] | The minimum concentration of test compounds combined with imipenem (4 μg/mL) for bacteriostasis [10] | The minimum concentration of test compounds combined with imipenem (4 μg/mL) for bacteriostasis [11] | The minimum concentration of test compounds combined with imipenem (4 μg/mL) for bacteriostasis [12] | The minimum concentration of test compounds combined with imipenem (4 μg/mL) for bacteriostasis [13] | The minimum concentration of test compounds combined with imipenem (4 μg/mL) for bacteriostasis [14] | The minimum concentration of test compounds combined with imipenem (4 μg/mL) for bacteriostasis [15] | The minimum concentration of test compounds combined with imipenem (4 μg/mL) for bacteriostasis [16]
N=C(N)NCCc1cc([C@@H]2CC3(CC3)[C@@H]3CN2C(=O)N3OS(=O)(=O)O)no1 [Example 36, (1R,4S)-4-(5-(2-guanidinoethyl)isoxazol-3-yl)-6-oxo-5,7-diazaspiro[bicyclo[3.2.1]octane-2,1′-cyclopropan]-7-yl sulfate] | B (B: 8-16 μg/mL) | B (B: 8-16 μg/mL) | A (A: <8 μg/mL) | A (A: <8 μg/mL) | A (A: <8 μg/mL) | A (A: <8 μg/mL) | C (C: 16-128 μg/mL) | A (A: <8 μg/mL) | A (A: <8 μg/mL) | A (A: <8 μg/mL) | A (A: <8 μg/mL) | A (A: <8 μg/mL) | A (A: <8 μg/mL) | A (A: <8 μg/mL) | C (C: 16-128 μg/mL) | A (A: <8 μg/mL)
CNCCc1nnc([C@@H]2CC3(CC3)[C@@H]3CN2C(=O)N3OS(=O)(=O)O)o1 [Example 24, (1R,4S)-4-(5-(2-(methylamino)ethyl)-1,3,4-oxadiazol-2-yl)-6-oxo-5,7-diazaspiro[bicyclo[3.2.1]octane-2,1′-cyclopropan]-7-yl sulfate] | C (C: 16-128 μg/mL) | A (A: <8 μg/mL) | A (A: <8 μg/mL) | A (A: <8 μg/mL) | A (A: <8 μg/mL) | A (A: <8 μg/mL) | C (C: 16-128 μg/mL) | A (A: <8 μg/mL) | B (B: 8-16 μg/mL) | A (A: <8 μg/mL) | A (A: <8 μg/mL) | A (A: <8 μg/mL) | A (A: <8 μg/mL) | A (A: <8 μg/mL) | A (A: <8 μg/mL) | A (A: <8 μg/mL)
CN(Cc1cc([C@@H]2CC3(CC3)[C@@H]3CN2C(=O)N3OS(=O)(=O)O)no1)C(=N)N [Example 33, (1R,4S)-4-(5-((1-methylguanidino)methyl)isoxazol-3-yl)-6-oxo-5,7-diazaspiro[bicycle [3.2.1]octane-2,1′-cyclopropan]-7-yl sulfate] | C (C: 16-128 μg/mL) | C (C: 16-128 μg/mL) | B (B: 8-16 μg/mL) | B (B: 8-16 μg/mL) | C (C: 16-128 μg/mL) | A (A: <8 μg/mL) | C (C: 16-128 μg/mL) | A (A: <8 μg/mL) | B (B: 8-16 μg/mL) | A (A: <8 μg/mL) | A (A: <8 μg/mL) | A (A: <8 μg/mL) | A (A: <8 μg/mL) | A (A: <8 μg/mL) | C (C: 16-128 μg/mL) | A (A: <8 μg/mL)
O=C(NC1CNC1)[C@@H]1CC2(CC2)[C@@H]2CN1C(=O)N2OS(=O)(=O)O [Example 29, (1R,4S)-4-(azetidin-3-ylaminoformyl)-6-oxo-5,7-diazaspiro[bicyclo[3.2.1]octane-2,1′-cyclopropan]-7-yl sulfate] | B (B: 8-16 μg/mL) | A (A: <8 μg/mL) | A (A: <8 μg/mL) | A (A: <8 μg/mL) | A (A: <8 μg/mL) | A (A: <8 μg/mL) | C (C: 16-128 μg/mL) | A (A: <8 μg/mL) | A (A: <8 μg/mL) | A (A: <8 μg/mL) | A (A: <8 μg/mL) | A (A: <8 μg/mL) | A (A: <8 μg/mL) | A (A: <8 μg/mL) | C (C: 16-128 μg/mL) | A (A: <8 μg/mL)
